Experimental data published in ChEMBL document CHEMBL3832027, “DailyMed|setid=517fbb02-8793-4647-83c7-25a91be49622 | LEVITRA - vardenafil hydrochloride tablet, film coated|PD-Rx Pharmaceuticals, Inc”.

Columns and labels:
Homo sapiens = assay: Mean steady-state volume of distribution (Vss) for Vardenafil following oral doses of Vardenafil.; assay type: ADME, organism-based; settings: in vivo, dose 20 mg, dosed compound id 28, dosed compound name VARDENAFIL HYDROCHLORIDE, gender male, regimen Multiple dose, tissue Plasma
[1] = Evaluation of pharmacokinetic parameters for Vardenafil evaluated following single oral administration of Vardenafil to healthy male volunteers.; assay type: ADME, organism-based; settings: human, in vivo, dose 20 mg, dosed compound id 28, dosed compound name VARDENAFIL HYDROCHLORIDE, gender male, regimen Single dose, tissue Plasma

- Vss (Homo sapiens): 208 L
- Tmax ([1]; dietary status Fasting): 0.5 to 2 h
- half-life [1]: 4 to 5 h
Compound: CCCc1nc(C)c2c(=O)nc(-c3cc(S(=O)(=O)N4CCN(CC)CC4)ccc3OCC)[nH]n12.Cl [VARDENAFIL HYDROCHLORIDE]
